According to patent publication US10004701B2, “Methods and compositions for treating infection” (UNIVERSITY OF ROCHESTER, priority 2012, dated 2018):
Counter-ions that a name gives are not always drawn. Like-named read-outs stand apart in the source and are kept apart here.

Assays:
Assay in all cases: AK assay 384-well format, Prestwick library screening
E. cloacae = assay type: cell-based, Enterobacter cloacae; conditions: Enterobacter cloacae, 3 h, 50 μM final drug concentration
E. faecium = assay type: cell-based, Enterococcus faecium; conditions: Enterococcus faecium, 3 h, 50 μM final drug concentration
[1] = tested on: A. baumannii strain 98-37-09; assay type: cell-based, Acinetobacter baumannii; conditions: Acinetobacter baumannii, 983709, 3 h, 50 μM final drug concentration
E. coli = assay type: cell-based, Escherichia coli; conditions: Escherichia coli, 3 h, 50 μM final drug concentration
K. pneumoniae = assay type: cell-based, Klebsiella pneumoniae; conditions: Klebsiella pneumoniae, 3 h, 50 μM final drug concentration
P. aeruginosa = assay type: cell-based, Pseudomonas aeruginosa; conditions: Pseudomonas aeruginosa, 3 h, 50 μM final drug concentration
[2] = tested on: S. aureus strain USA300-0114; assay type: cell-based, Staphylococcus aureus; conditions: Staphylococcus aureus, USA300, 3 h, 50 μM final drug concentration
[3] = 384-well format, cutoff for positive-scoring molecules 3-fold increase, read-out: AK-based Prestwick Library Screening Results, E. cloacae (increase in extracellular AK activity)
[4] = 384-well format, cutoff for positive-scoring molecules 3-fold increase, read-out: AK-based Prestwick Library Screening Results, E. faecium (increase in extracellular AK activity)
[5] = 384-well format, cutoff for positive-scoring molecules 3-fold increase, read-out: AK-based Prestwick Library Screening Results, A. baumannii (increase in extracellular AK activity)
[6] = 384-well format, cutoff for positive-scoring molecules 3-fold increase, read-out: AK-based Prestwick Library Screening Results, E. coli (increase in extracellular AK activity)
[7] = 384-well format, cutoff for positive-scoring molecules 3-fold increase, read-out: AK-based Prestwick Library Screening Results, K. pneumoniae (increase in extracellular AK activity)
[8] = 384-well format, cutoff for positive-scoring molecules 3-fold increase, read-out: AK-based Prestwick Library Screening Results, P. aeruginosa (increase in extracellular AK activity)
[9] = 384-well format, cutoff for positive-scoring molecules 3-fold increase, read-out: AK-based Prestwick Library Screening Results, S. aureus (increase in extracellular AK activity)
[10] = planktonic, […], read-out: AK-based Prestwick Library Screening Results, E. cloacae (fold increase in extracellular AK activity)
[11] = planktonic, […], read-out: AK-based Prestwick Library Screening Results, E. faecium (fold increase in extracellular AK activity)
[12] = planktonic, […], read-out: AK-based Prestwick Library Screening Results, A. baumannii (fold increase in extracellular AK activity)
[13] = planktonic, […], read-out: AK-based Prestwick Library Screening Results, E. coli (fold increase in extracellular AK activity)
[14] = planktonic, […], read-out: AK-based Prestwick Library Screening Results, K. pneumoniae (fold increase in extracellular AK activity)
[15] = planktonic, […], read-out: AK-based Prestwick Library Screening Results, P. aeruginosa (fold increase in extracellular AK activity)
[16] = planktonic, […], read-out: AK-based Prestwick Library Screening Results, S. aureus (fold increase in extracellular AK activity)
[17] = planktonic, cutoff for positive-scoring molecules 3-fold increase, read-out: AK-based Prestwick Library Screening Results, E. cloacae (fold increase in extracellular AK activity)
[18] = planktonic, cutoff for positive-scoring molecules 3-fold increase, read-out: AK-based Prestwick Library Screening Results, E. faecium (fold increase in extracellular AK activity)
[19] = planktonic, cutoff for positive-scoring molecules 3-fold increase, read-out: AK-based Prestwick Library Screening Results, A. baumannii (fold increase in extracellular AK activity)
[20] = planktonic, cutoff for positive-scoring molecules 3-fold increase, read-out: AK-based Prestwick Library Screening Results, E. coli (fold increase in extracellular AK activity)
[21] = planktonic, cutoff for positive-scoring molecules 3-fold increase, read-out: AK-based Prestwick Library Screening Results, K. pneumoniae (fold increase in extracellular AK activity)
[22] = planktonic, cutoff for positive-scoring molecules 3-fold increase, read-out: AK-based Prestwick Library Screening Results, P. aeruginosa (fold increase in extracellular AK activity)
[23] = planktonic, cutoff for positive-scoring molecules 3-fold increase, read-out: AK-based Prestwick Library Screening Results, S. aureus (fold increase in extracellular AK activity)
[24] = planktonic, cutoff for positive 3-fold increase, read-out: AK-based Prestwick Library Screening Results, E. cloacae (fold increase in extracellular AK activity)
[25] = planktonic, cutoff for positive 3-fold increase, read-out: AK-based Prestwick Library Screening Results, E. faecium (fold increase in extracellular AK activity)
[26] = planktonic, cutoff for positive 3-fold increase, read-out: AK-based Prestwick Library Screening Results, A. baumannii (fold increase in extracellular AK activity)
[27] = planktonic, cutoff for positive 3-fold increase, read-out: AK-based Prestwick Library Screening Results, E. coli (fold increase in extracellular AK activity)
[28] = planktonic, cutoff for positive 3-fold increase, read-out: AK-based Prestwick Library Screening Results, K. pneumoniae (fold increase in extracellular AK activity)
[29] = planktonic, cutoff for positive 3-fold increase, read-out: AK-based Prestwick Library Screening Results, P. aeruginosa (fold increase in extracellular AK activity)
[30] = planktonic, cutoff for positive 3-fold increase, read-out: AK-based Prestwick Library Screening Results, S. aureus (fold increase in extracellular AK activity)

## COc1ccc(C(=O)NCc2cccnc2)cc1C(=O)NCc1cccnc1 [Picotamide monohydrate]
E. cloacae; [3]
  fold induction at 50 µM: 1.2
E. faecium; [4]
  fold induction at 50 µM: 0.9
[1]; [5]
  fold induction at 50 µM: 0.9
E. coli; [6]
  fold induction at 50 µM: 0.9
K. pneumoniae; [7]
  fold induction at 50 µM: 0.8
P. aeruginosa; [8]
  fold induction at 50 µM: 0.8
[2]; [9]
  fold induction at 50 µM: 0.7

## COc1c(O[C@@H]2O[C@H](CO)[C@@H](O)[C@H](O)[C@H]2O)cc2c(c1OC)-c1ccc(SC)c(=O)cc1[C@@H](NC(C)=O)CC2 [Thiocolchicoside]
E. cloacae; [10]
  fold induction at 50 µM: 1.7
E. faecium; [11]
  fold induction at 50 µM: 1.1
[1]; [12]
  fold induction at 50 µM: 0.9
E. coli; [13]
  fold induction at 50 µM: 1
K. pneumoniae; [14]
  fold induction at 50 µM: 0.8
P. aeruginosa; [15]
  fold induction at 50 µM: 1
[2]; [16]
  fold induction at 50 µM: 1.2

## CC(C)(Oc1ccc(Cl)cc1)C(=O)O [Clofibric acid]
E. cloacae; cutoff for positive-scoring molecules 3-fold increase, read-out: AK-based Prestwick Library Screening Results, E. cloacae (fold increase in extracellular AK activity)
  fold induction at 50 µM: 1.5
E. faecium; cutoff for positive-scoring molecules 3-fold increase, read-out: AK-based Prestwick Library Screening Results, E. faecium (fold increase in extracellular AK activity)
  fold induction at 50 µM: 1.1
[1]; cutoff for positive-scoring molecules 3-fold increase, read-out: AK-based Prestwick Library Screening Results, A. baumannii (fold increase in extracellular AK activity)
  fold induction at 50 µM: 1.3
E. coli; cutoff for positive-scoring molecules 3-fold increase, read-out: AK-based Prestwick Library Screening Results, E. coli (fold increase in extracellular AK activity)
  fold induction at 50 µM: 1.2
K. pneumoniae; cutoff for positive-scoring molecules 3-fold increase, read-out: AK-based Prestwick Library Screening Results, K. pneumoniae (fold increase in extracellular AK activity)
  fold induction at 50 µM: 1.1
P. aeruginosa; cutoff for positive-scoring molecules 3-fold increase, read-out: AK-based Prestwick Library Screening Results, P. aeruginosa (fold increase in extracellular AK activity)
  fold induction at 50 µM: 1.2
[2]; cutoff for positive-scoring molecules 3-fold increase, read-out: AK-based Prestwick Library Screening Results, S. aureus (fold increase in extracellular AK activity)
  fold induction at 50 µM: 1.4

## CC1(C)S[C@@H]2[C@H](NC(=O)[C@H](N)c3ccccc3)C(=O)N2[C@H]1C(=O)O [Ampicillin trihydrate]
E. cloacae; [3]
  fold induction at 50 µM: 3.5
E. faecium; [4]
  fold induction at 50 µM: 1.1
[1]; [5]
  fold induction at 50 µM: 1.6
E. coli; [6]
  fold induction at 50 µM: 12.2
K. pneumoniae; [7]
  fold induction at 50 µM: 0.6
P. aeruginosa; [8]
  fold induction at 50 µM: 0.7
[2]; [9]
  fold induction at 50 µM: 0.5

## Nc1ccc(S(N)(=O)=O)cc1 [Sulfanilamide]
E. cloacae; [17]
  fold induction at 50 µM: 0.4
E. faecium; [18]
  fold induction at 50 µM: 0.9
[1]; [19]
  fold induction at 50 µM: 1.5
E. coli; [20]
  fold induction at 50 µM: 0.5
K. pneumoniae; [21]
  fold induction at 50 µM: 0.6
P. aeruginosa; [22]
  fold induction at 50 µM: 0.5
[2]; [23]
  fold induction at 50 µM: 0.4

## CC(=O)Nc1ccc(OCC(O)CNC(C)C)cc1 (centres unmarked) [Practolol]
E. cloacae; planktonic E. cloacae, cutoff for positive-scoring molecules 3-fold increase, read-out: AK-based Prestwick Library Screening Results, E. cloacae (increase in extracellular AK activity)
  fold induction at 50 µM: 0.8
E. faecium; planktonic E. faecium, cutoff for positive-scoring molecules 3-fold increase, read-out: AK-based Prestwick Library Screening Results, E. faecium (increase in extracellular AK activity)
  fold induction at 50 µM: 0.9
[1]; planktonic A. baumannii, cutoff for positive-scoring molecules 3-fold increase, read-out: AK-based Prestwick Library Screening Results, A. baumannii (increase in extracellular AK activity)
  fold induction at 50 µM: 0.7
E. coli; planktonic E. coli, cutoff for positive-scoring molecules 3-fold increase, read-out: AK-based Prestwick Library Screening Results, E. coli (increase in extracellular AK activity)
  fold induction at 50 µM: 0.7
K. pneumoniae; planktonic K. pneumoniae, cutoff for positive-scoring molecules 3-fold increase, read-out: AK-based Prestwick Library Screening Results, K. pneumoniae (increase in extracellular AK activity)
  fold induction at 50 µM: 0.5
P. aeruginosa; planktonic P. aeruginosa, cutoff for positive-scoring molecules 3-fold increase, read-out: AK-based Prestwick Library Screening Results, P. aeruginosa (increase in extracellular AK activity)
  fold induction at 50 µM: 0.6
[2]; planktonic S. aureus, cutoff for positive-scoring molecules 3-fold increase, read-out: AK-based Prestwick Library Screening Results, S. aureus (increase in extracellular AK activity)
  fold induction at 50 µM: 0.6

## CN1C(C)(C)CCCC1(C)C [Pempidine tartrate]
E. cloacae; [10]
  fold induction at 50 µM: 1.5
E. faecium; [11]
  fold induction at 50 µM: 1
[1]; [12]
  fold induction at 50 µM: 1.1
E. coli; [13]
  fold induction at 50 µM: 1.1
K. pneumoniae; [14]
  fold induction at 50 µM: 1
P. aeruginosa; [15]
  fold induction at 50 µM: 1.1
[2]; [16]
  fold induction at 50 µM: 1.1

## NC(Cn1ccc(=O)c(O)c1)C(=O)O (centres unmarked) [Mimosine]
E. cloacae; [24]
  fold induction at 50 µM: 1.5
E. faecium; [25]
  fold induction at 50 µM: 1
[1]; [26]
  fold induction at 50 µM: 0.9
E. coli; [27]
  fold induction at 50 µM: 1
K. pneumoniae; [28]
  fold induction at 50 µM: 0.9
P. aeruginosa; [29]
  fold induction at 50 µM: 1.1
[2]; [30]
  fold induction at 50 µM: 1.4

## N=C(N)c1ccc(OCCCCCOc2ccc(C(=N)N)cc2)cc1 [Pentamidine isethionate]
E. cloacae; [24]
  fold induction at 50 µM: 1.4
E. faecium; [25]
  fold induction at 50 µM: 1.4
[1]; [26]
  fold induction at 50 µM: 1.2
E. coli; [27]
  fold induction at 50 µM: 1.4
K. pneumoniae; [28]
  fold induction at 50 µM: 1.2
P. aeruginosa; [29]
  fold induction at 50 µM: 1.2
[2]; [30]
  fold induction at 50 µM: 1.9

## CCc1cc(C(N)=S)ccn1 [Ethionamide]
E. cloacae; [24]
  fold induction at 50 µM: 1.4
E. faecium; [25]
  fold induction at 50 µM: 1
[1]; [26]
  fold induction at 50 µM: 1.2
E. coli; [27]
  fold induction at 50 µM: 1.1
K. pneumoniae; [28]
  fold induction at 50 µM: 1
P. aeruginosa; [29]
  fold induction at 50 µM: 1.1
[2]; [30]
  fold induction at 50 µM: 1.3

## CCCC(=O)Nc1ncnc2c1ncn2[C@@H]1O[C@@H]2COP(=O)(O)O[C@H]2[C@H]1OC(=O)CCC [Bucladesine sodium salt]
E. cloacae; [17]
  fold induction at 50 µM: 0.9
E. faecium; [18]
  fold induction at 50 µM: 0.9
[1]; [19]
  fold induction at 50 µM: 0.8
E. coli; [20]
  fold induction at 50 µM: 0.7
K. pneumoniae; [21]
  fold induction at 50 µM: 0.6
P. aeruginosa; [22]
  fold induction at 50 µM: 0.8
[2]; [23]
  fold induction at 50 µM: 0.7
